From patent publication US8383623B2, “Phthalazin-(2H)-one inhibitors of kinases” (Abbott Laboratories, priority 2010, dated 2013)

Biological target: T1, Cdc7 (BEV coexpressed huCDC7/DBF4) (Homo sapiens, UniProt O00311)
T1 construct: made in house; host or cells: BEV (baculovirus expression vector)
Test: Cdc7 enzyme inhibition assay ([33P]-ATP, biotinylated peptide substrate, FlashPlate)
Assay type: biochemical
Conditions: Ki generated from IC50 assuming ATP-competitive inhibition, apparent ATP Km 0.7 μM; 1 μM ATP, 1 hr
Protocol: This example describes the assays that may be used to identify compounds having kinase activity.
Cdc7 (BEV coexpressed huCDC7/DBF4) is prepared internally. Cdc7 assays are conducted as follows with final concentrations as listed. In 384-well v-bottom polypropylene plates, 6 μL compound (2% DMSO), is mixed with 6 μL of Cdc7 (2 ug/mL), and Jerini peptide substrate A-A11 (biotin-C6linker-TPSDSLIYDDGLS) (2 μM), followed by immediate initiation with 6 μL λ-[^33P]-ATP (1 μM, 20 mCi/μmol) using a reaction buffer comprising 25 mM HEPES, pH 7.5, 1 mM DTT, 10 mM MgCl2, 100 μM Na3VO4, 0.075 mg/ml Triton X-100. Reactions are quenched after 1 hr by the addition of 90 μL stop buffer (50 mM EDTA, 2M NaCl). 85 μL of the stopped reactions are transferred to 384-well streptavidin-coated plates (FlashPlate Plus, Perkin Elmer), incubated 30 minutes at room temperature and washed 3 times with 0.05% Tween-20/PBS using an ELX-405 automated plate washer (BioTek), and counted on a TopCount Scintillation Plate Reader (Packard). IC50 values are determined via non-linear regression fitting of enzyme inhibition data and corresponding Ki values are generated assuming ATP-competitive (equilibrium) inhibition and using the experimentally determined apparent ATP Km of 0.7 μM (as determined using the above assay condition, but varying ATP).
Table 1 depicts enzyme inhibition data (Ki) for exemplary compounds. In Table 1, “A” represents a K, of less than 10 nM, “B” represents a K, of between 10 nM and 100 nM, and “C” represents a Ki of greater than 100 nM.

T1 sequence (O00311 whole entry): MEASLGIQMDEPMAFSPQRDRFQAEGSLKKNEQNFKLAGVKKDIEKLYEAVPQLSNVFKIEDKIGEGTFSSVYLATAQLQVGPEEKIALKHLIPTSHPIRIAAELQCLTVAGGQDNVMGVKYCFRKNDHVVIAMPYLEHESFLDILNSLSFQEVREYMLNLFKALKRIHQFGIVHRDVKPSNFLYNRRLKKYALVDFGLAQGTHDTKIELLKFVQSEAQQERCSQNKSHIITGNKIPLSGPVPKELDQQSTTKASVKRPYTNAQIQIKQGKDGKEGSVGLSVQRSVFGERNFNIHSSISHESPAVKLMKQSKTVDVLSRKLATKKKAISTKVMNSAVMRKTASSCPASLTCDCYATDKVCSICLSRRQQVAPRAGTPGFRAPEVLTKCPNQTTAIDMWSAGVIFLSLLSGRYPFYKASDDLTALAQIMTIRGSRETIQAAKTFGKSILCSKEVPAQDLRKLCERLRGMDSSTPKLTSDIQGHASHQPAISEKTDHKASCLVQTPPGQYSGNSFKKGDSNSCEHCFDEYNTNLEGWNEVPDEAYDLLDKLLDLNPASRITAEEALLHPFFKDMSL
T1 sequence (Q9UBU7 whole entry partner): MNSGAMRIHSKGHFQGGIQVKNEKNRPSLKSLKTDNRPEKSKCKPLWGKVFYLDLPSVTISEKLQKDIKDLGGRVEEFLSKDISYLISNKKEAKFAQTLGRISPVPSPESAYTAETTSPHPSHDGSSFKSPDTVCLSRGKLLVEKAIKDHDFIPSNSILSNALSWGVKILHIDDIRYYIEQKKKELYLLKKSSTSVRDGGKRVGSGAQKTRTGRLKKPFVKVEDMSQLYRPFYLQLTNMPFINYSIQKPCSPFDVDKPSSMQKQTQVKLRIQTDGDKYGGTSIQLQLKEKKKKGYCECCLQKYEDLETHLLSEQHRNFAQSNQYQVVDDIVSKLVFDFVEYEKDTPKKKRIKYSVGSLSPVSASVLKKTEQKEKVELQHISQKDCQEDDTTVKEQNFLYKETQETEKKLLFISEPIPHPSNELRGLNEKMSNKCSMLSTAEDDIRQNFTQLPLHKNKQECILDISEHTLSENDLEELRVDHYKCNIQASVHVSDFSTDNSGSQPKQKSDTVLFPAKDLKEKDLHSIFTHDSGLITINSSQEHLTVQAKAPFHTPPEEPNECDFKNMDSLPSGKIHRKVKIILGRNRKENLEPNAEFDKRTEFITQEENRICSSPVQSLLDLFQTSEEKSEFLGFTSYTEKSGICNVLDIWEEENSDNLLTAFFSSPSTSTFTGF

Compound	Ki [nM]
4-(2,5-dichlorobenzyl)-6-(1H-pyrrolo[2,3-b]pyridin-3-yl)phthalazin-1(2H)-one [Example 6]	> 100
O=c1[nH]nc(Cc2ccccc2)c2cc(-c3c[nH]c4ncccc34)ccc12 [Example 1, 4-benzyl-6-(1H-pyrrolo[2,3-b]pyridin-3-yl)phthalazin-1(2H)-one]	< 10
O=c1[nH]nc(Cc2ccccc2)c2cc(-c3ccncc3)ccc12 [Example 2, 4-benzyl-6-(pyridin-4-yl)phthalazin-1(2H)-one]	> 100
O=c1[nH]nc(Cc2ccccc2)c2cc(-c3cn[nH]c3)ccc12 [Example 3, 4-benzyl-6-(1H-pyrazol-4-yl)phthalazin-1(2H)-one]	10 to 100
O=c1[nH]nc(Cc2ccncc2)c2cc(-c3c[nH]c4ncccc34)ccc12 [Example 5, 4-(pyridin-4-ylmethyl)-6-(1H-pyrrolo[2,3-b]pyridin-3-yl)phthalazin-1(2H)-one]	< 10
O=c1[nH]nc(Cc2cccnc2)c2cc(-c3c[nH]c4ncccc34)ccc12 [Example 8, 4-(pyridin-3-ylmethyl)-6-(1H-pyrrolo[2,3-b]pyridin-3-yl)phthalazin-1(2H)-one]	< 10
O=c1[nH]nc(CC2CCNCC2)c2cc(-c3c[nH]c4ncccc34)ccc12 [Example 9, 4-(piperidin-4-ylmethyl)-6-(1H-pyrrolo[2,3-b]pyridin-3-yl)phthalazin-1(2H)-one]	10 to 100
CN(C)c1ccc(Cc2n[nH]c(=O)c3ccc(-c4c[nH]c5ncccc45)cc23)cc1 [Example 11, 4-[4-(dimethylamino)benzyl]-6-(1H-pyrrolo[2,3-b]pyridin-3-yl)phthalazin-1(2H)-one]	10 to 100
CC(=O)Nc1ccc(Cc2n[nH]c(=O)c3ccc(-c4c[nH]c5ncccc45)cc23)cc1 [Example 12, N-(4-{[4-oxo-7-(1H-pyrrolo[2,3-b]pyridin-3-yl)-3,4-dihydrophthalazin-1-yl]methyl}phenyl)acetamide]	< 10

Now from value to compound:

Ki [nM]	Compound
> 100	O=c1[nH]nc(Cc2ccccc2)c2cc(-c3cccnc3)ccc12 [Example 4, 4-benzyl-6-(pyridin-3-yl)phthalazin-1(2H)-one]
> 100	O=c1[nH]nc(CC2CCCNC2)c2cc(-c3c[nH]c4ncccc34)ccc12 (stereo not shown) [Example 7, 4-(piperidin-3-ylmethyl)-6-(1H-pyrrolo[2,3-b]pyridin-3-yl)phthalazin-1(2H)-one]
> 100	O=c1[nH]nc(CC2CCCCN2)c2cc(-c3c[nH]c4ncccc34)ccc12 (stereo not shown) [Example 10, 4-(piperidin-2-ylmethyl)-6-(1H-pyrrolo[2,3-b]pyridin-3-yl)phthalazin-1(2H)-one]
10 to 100	Cn1ccc(Cc2n[nH]c(=O)c3ccc(-c4c[nH]c5ncccc45)cc23)n1 [Example 13, 4-[(1-methyl-1H-pyrazol-3-yl)methyl]-6-(1H-pyrrolo [2,3-b]pyridin-3-yl)phthalazin-1(2H)-one]
